Consider one molecule from patent publication US20190008819A1, “Methods and Compositions Using Cetyl Myristoleate (CMO) In Medical Treatments” (priority 2017, published 2019).

Holding throughout (assay type): in vivo, human
The subject of test [1] is middle age person with shoulder pain. Put plainly: Case report: shoulder pain, CMO with gabapentin. The settings on record: 0.1 milligrams to 10 grams cetyl myristoleate once to four times per day with an effective dosage gabapentin; one patient. From the text:
A middle age person was taking a brief CMO regime for shoulder pain.

Test [2] relates to middle age person with complex regional pain syndrome. Put plainly: Case report: complex regional pain syndrome with post-surgery pain. The procedure: A middle age person with complex regional pain syndrome had post-surgery pain. It was so severe that the person was to have foot amputation for the pain. A dosage of 0.1 milligrams to 10 grams of cetyl myristoleate once to four times per day was administered to the person. Shortly, the person described the pain decreased by 20-30 percent.

The test system of test [3] is middle age person with cervical post-surgery syndrome. Put plainly: Case report: cervical post-surgery syndrome. The following applies: 0.1 milligrams to 10 grams cetyl myristoleate once to four times per day; one patient. From the text:
A middle age person experienced cervical post-surgery syndrome.

In test [4] the test system is middle age person with knee pain. The test can be described thus: Case report: knee pain, CMO with gabapentin. The following applies: 0.1 milligrams to 10 grams cetyl myristoleate once to four times per day with appropriate dosage gabapentin; one patient. From the text:
A middle age person was taking a brief CMO regime for knee pain.

For `CCCC/C=C\CCCCCCCC(=O)OCCCCCCCCCCCCCCCC` [cetyl myristoleate, cis-9-Cetyl myristoleate], the shoulder pain result in test [1] is recorded as “decreased dramatically”. Moreover, in test [2] (0.1 milligrams to 10 grams cetyl myristoleate once to four times per day, one patient, post-surgery pain), the “pain decreased (patient described)” value is reported as 20-30%. In addition, the amputation outcome in test [2] (patient was to have foot amputation for the pain, 0.1 milligrams to 10 grams once to four times per day) was “has not undergone amputation”. Also, in test [3], the “post-laminectomy syndrome (PLS)” value was “improved significantly”. Besides, the knee pain entry in test [4] was “decreased dramatically”.
